Values after ≈ are worked out from the molar mass of the structure shown. Like-named read-outs stand apart in the source and are kept apart here.
Experiments:
[1] = system: human liver microsomes (HLM); format: in vitro ADME; details: pooled HLM; Km not shown
UGT1A1 = target: T1, UGT1A1 (Homo sapiens, UniProt P22309); test: Screening for aprepitant glucuronidation, UGT1A1 Supersomes; format: in vitro ADME; details: UGT1A1, 5 and 250 µM aprepitant
T1 sequence (P22309 26-533): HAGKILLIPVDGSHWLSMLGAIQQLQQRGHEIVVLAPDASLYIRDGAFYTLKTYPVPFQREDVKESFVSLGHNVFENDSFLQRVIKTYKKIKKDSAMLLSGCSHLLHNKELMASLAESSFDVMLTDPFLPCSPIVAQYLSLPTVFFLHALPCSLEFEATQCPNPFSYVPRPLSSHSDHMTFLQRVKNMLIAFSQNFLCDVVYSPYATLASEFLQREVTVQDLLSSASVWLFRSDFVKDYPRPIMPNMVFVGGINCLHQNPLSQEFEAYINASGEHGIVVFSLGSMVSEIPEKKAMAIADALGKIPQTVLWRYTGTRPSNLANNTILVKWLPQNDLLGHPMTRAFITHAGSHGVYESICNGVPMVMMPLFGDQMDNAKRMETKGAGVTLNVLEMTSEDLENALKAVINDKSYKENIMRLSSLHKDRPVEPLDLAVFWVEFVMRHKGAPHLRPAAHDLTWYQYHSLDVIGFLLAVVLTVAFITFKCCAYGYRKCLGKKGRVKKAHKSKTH

UGT1A9 = target: T2, UGT1A9 (Homo sapiens, UniProt O60656); test: Screening for aprepitant glucuronidation, UGT1A9 Supersomes; format: in vitro ADME; details: UGT1A9, 5 and 250 µM aprepitant
T2 sequence (O60656 26-530): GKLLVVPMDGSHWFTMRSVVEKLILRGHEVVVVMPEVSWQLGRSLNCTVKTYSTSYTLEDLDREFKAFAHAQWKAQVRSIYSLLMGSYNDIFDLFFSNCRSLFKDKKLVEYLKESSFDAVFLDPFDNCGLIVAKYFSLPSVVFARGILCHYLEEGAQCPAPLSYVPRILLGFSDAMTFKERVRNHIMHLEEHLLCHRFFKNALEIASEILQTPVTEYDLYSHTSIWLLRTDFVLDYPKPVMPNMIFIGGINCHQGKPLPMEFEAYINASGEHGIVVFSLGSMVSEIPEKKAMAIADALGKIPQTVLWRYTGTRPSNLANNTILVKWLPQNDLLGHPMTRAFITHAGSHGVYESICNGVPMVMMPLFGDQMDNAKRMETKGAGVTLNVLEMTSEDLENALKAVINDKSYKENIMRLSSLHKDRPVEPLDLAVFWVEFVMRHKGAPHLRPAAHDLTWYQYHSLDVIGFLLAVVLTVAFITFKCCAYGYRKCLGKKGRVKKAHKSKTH

UGT1A10 = target: T3, UGT1A10 (Homo sapiens, UniProt Q9HAW8); test: Screening for aprepitant glucuronidation, UGT1A10 Supersomes; format: in vitro ADME; details: UGT1A10, 5 and 250 µM aprepitant
T3 sequence (Q9HAW8 26-530): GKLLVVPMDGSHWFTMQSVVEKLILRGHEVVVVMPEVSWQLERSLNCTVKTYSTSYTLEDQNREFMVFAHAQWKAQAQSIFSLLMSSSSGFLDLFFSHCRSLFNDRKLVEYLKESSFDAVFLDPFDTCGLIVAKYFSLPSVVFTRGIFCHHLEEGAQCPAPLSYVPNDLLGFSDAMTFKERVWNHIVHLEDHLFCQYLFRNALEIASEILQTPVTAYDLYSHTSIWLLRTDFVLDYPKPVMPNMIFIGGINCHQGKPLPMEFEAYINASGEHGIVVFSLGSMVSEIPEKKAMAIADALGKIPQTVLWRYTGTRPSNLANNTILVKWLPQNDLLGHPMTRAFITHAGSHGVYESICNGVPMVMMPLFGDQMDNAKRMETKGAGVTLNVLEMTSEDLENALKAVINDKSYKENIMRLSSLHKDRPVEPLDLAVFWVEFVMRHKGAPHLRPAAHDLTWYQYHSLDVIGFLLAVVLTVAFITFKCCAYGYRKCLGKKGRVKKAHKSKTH

UGT2B15 = target: T4, UGT2B15 (Homo sapiens, UniProt P54855); test: Screening for aprepitant glucuronidation, UGT2B15 Supersomes; format: in vitro ADME; details: UGT2B15, 5 and 250 µM aprepitant
T4 sequence (P54855 24-530): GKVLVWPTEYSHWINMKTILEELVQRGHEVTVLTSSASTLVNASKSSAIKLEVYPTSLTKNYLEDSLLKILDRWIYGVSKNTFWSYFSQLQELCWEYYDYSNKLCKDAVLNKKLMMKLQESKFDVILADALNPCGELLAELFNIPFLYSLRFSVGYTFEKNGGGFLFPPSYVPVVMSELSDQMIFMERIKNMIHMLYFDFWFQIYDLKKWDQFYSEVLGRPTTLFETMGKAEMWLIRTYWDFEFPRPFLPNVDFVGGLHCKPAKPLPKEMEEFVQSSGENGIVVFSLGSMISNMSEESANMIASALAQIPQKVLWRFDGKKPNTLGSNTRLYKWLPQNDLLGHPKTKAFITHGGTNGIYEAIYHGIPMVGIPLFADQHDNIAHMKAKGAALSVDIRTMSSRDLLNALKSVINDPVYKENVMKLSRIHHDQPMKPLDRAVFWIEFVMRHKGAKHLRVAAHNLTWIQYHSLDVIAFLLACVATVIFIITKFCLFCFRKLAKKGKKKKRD

[2] = Aqueous solubility of aprepitant; format: physicochemical; details: aqueous medium
[3] = Calculated concentration of drug in the lumen of the gut; parameters: species or system human; details: molar dose/250 mL
UGT1A3 = target: T5, UGT1A3 (Homo sapiens, UniProt P35503); details: pH 7.5; for velocity of AP-G formation: 60 min
T5 sequence (P35503 29-534): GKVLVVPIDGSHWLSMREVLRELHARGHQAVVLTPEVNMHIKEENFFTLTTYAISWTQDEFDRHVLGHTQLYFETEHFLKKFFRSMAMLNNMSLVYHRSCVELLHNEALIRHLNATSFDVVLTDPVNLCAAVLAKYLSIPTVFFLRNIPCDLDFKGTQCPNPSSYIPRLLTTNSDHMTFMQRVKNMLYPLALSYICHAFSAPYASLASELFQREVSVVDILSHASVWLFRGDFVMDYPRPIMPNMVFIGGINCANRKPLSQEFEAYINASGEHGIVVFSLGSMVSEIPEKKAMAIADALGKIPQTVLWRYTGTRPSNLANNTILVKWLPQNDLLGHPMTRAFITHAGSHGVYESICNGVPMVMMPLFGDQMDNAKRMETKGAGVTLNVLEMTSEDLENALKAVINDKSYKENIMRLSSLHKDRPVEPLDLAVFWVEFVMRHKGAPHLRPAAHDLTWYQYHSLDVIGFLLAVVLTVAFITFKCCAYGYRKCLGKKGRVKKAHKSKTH

AP-G formation (UGT1A1): not detected
AP-G formation (UGT1A9): not detected
AP-G formation (UGT1A10): not detected
AP-G formation (UGT2B15): not detected
solubility [2]: ~250 µM (≈ 134 µg/mL)
luminal concentration (Igut) ([3]; 40 mg oral capsule): 300 µM
luminal concentration (Igut) ([3]; 125 mg oral capsule): 936 µM
velocity of AP-G formation (UGT1A3; 5 µM): 44.1 ± 0.7 fmol/min/mg protein
velocity of AP-G formation (UGT1A3; 250 µM): 717.3 ± 18.6 fmol/min/mg protein
CLint (UGT1A3; recombinant enzyme): 15 µl/min/µg protein
SMILES: C[C@@H](O[C@H]1OCCN(Cc2n[nH]c(=O)[nH]2)[C@H]1c1ccc(F)cc1)c1cc(C(F)(F)F)cc(C(F)(F)F)c1 [aprepitant, Aprepitant]
shape of velocity curve (kinetics) [1]: biphasic shape
